Reference: PubChem BioAssay AID330 (DTP/NCI, 2004)
Several values for one entry are separate records, joined by “and”; a condition that tells them apart may be missing. Equal values may be shown once. Inconclusive results and toxic doses are left out.

System: P388 leukemia ip, CD2F1 mice, survival T/C
Assay: NCI In Vivo Anticancer Drug Screen. Data for tumor model P388 Leukemia (intraperitoneal) in CD2F1 (CDF1) mice
Conditions: endpoint: median survival time, higher = longer survival
Outline: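 Mice carrying the transplanted tumor received test compound or vehicle. Survival was recorded in each group, and the value is the treated-group measurement divided by that of the vehicle-treated control group.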

[1] = dose: 100.0 mg/kg/injection, schedule: Q01DX009 (ip), vehicle: saline with Tween-80
[2] = dose: 100.0 mg/kg/injection, schedule: Q04DX003 (ip), vehicle: saline with Tween-80
[3] = dose: 200.0 mg/kg/injection, schedule: Q01DX009 (ip), vehicle: saline with Tween-80
[4] = dose: 200.0 mg/kg/injection, schedule: Q04DX003 (ip), vehicle: saline with Tween-80
[5] = dose: 400.0 mg/kg/injection, schedule: Q04DX003 (ip), vehicle: saline with Tween-80
[6] = dose: 50.0 mg/kg/injection, schedule: Q01DX009 (ip), vehicle: saline with Tween-80
[7] = dose: 12.5 mg/kg/injection, schedule: Q01DX005 (ip), vehicle: Klucel (hydroxypropylcellulose) (HPC)
[8] = dose: 25.0 mg/kg/injection, schedule: Q01DX005 (ip), vehicle: Klucel (hydroxypropylcellulose) (HPC)
[9] = dose: 50.0 mg/kg/injection, schedule: Q01DX005 (ip), vehicle: Klucel (hydroxypropylcellulose) (HPC)
[10] = dose: 400.0 mg/kg/injection, schedule: Q01DX009 (ip), vehicle: saline with Tween-80
[11] = dose: 100.0 mg/kg/injection, schedule: Q01DX005 (ip), vehicle: Klucel (hydroxypropylcellulose) (HPC)
[12] = dose: 100.0 mg/kg/injection, schedule: Q01DX001 (ip), vehicle: Klucel (hydroxypropylcellulose) (HPC)
[13] = dose: 200.0 mg/kg/injection, schedule: Q01DX001 (ip), vehicle: Klucel (hydroxypropylcellulose) (HPC)
[14] = dose: 60.0 mg/kg/injection, schedule: Q01DX005 (ip), vehicle: saline with Tween-80
[15] = dose: 120.0 mg/kg/injection, schedule: Q01DX005 (ip), vehicle: saline with Tween-80
[16] = dose: 240.0 mg/kg/injection, schedule: Q01DX005 (ip), vehicle: saline with Tween-80

Cc1cc2c3ccccc3[nH]c(=O)n2n1
T/C (dose: 50.0 mg/kg/injection, schedule: Q04DX003 (ip), vehicle: saline): 101 % of control | T/C [1]: 100 % of control | T/C [2]: 110 % of control | T/C (dose: 100.0 mg/kg/injection, schedule: Q04DX003 (ip), vehicle: saline): 101 % of control | T/C [3]: 110 % of control | T/C [4]: 120 % of control | T/C (dose: 200.0 mg/kg/injection, schedule: Q04DX003 (ip), vehicle: saline): 105 % of control | T/C [5]: 100 % of control | T/C (dose: 400.0 mg/kg/injection, schedule: Q04DX003 (ip), vehicle: saline): 98 % of control

Cn1c2cc(Cl)c(Cl)cc2nc2cc3c(cc21)c(Cl)c(=O)c1ccccc13
T/C [6]: 104 % of control | T/C [1]: 100 % of control | T/C [3]: 98 % of control

COc1ccc(C(=O)C(C)Sc2ccccc2)cc1OC (stereo not drawn)
T/C (dose: 10.0 mg/kg/injection, schedule: Q01DX005 (ip), vehicle: Klucel (hydroxypropylcellulose) (HPC)): 108 % of control | T/C (dose: 20.0 mg/kg/injection, schedule: Q01DX005 (ip), vehicle: Klucel (hydroxypropylcellulose) (HPC)): 105 % of control | T/C (dose: 40.0 mg/kg/injection, schedule: Q01DX005 (ip), vehicle: Klucel (hydroxypropylcellulose) (HPC)): 101 % of control

O=[N+]([O-])c1cc(NC(=S)SCc2ccc3c(c2)OCO3)ccc1Cl
T/C (dose: 50.0 mg/kg/injection, schedule: Q01DX009 (ip), vehicle: suspension in saline): 110 % of control | T/C (dose: 100.0 mg/kg/injection, schedule: Q01DX009 (ip), vehicle: suspension in saline): 114 % of control | T/C (dose: 200.0 mg/kg/injection, schedule: Q01DX009 (ip), vehicle: suspension in saline): 87 % of control

CCOC(=O)C1=C(C(=O)c2ccccc2)C(c2ccc([N+](=O)[O-])cc2)C(C(=O)c2ccccc2)=C(C(=O)OCC)N1
T/C (dose: 7.5 mg/kg/injection, schedule: Q01DX005 (ip), vehicle: Klucel (hydroxypropylcellulose) (HPC)): 94 % of control | T/C (dose: 15.0 mg/kg/injection, schedule: Q01DX005 (ip), vehicle: Klucel (hydroxypropylcellulose) (HPC)): 95 % of control | T/C (dose: 30.0 mg/kg/injection, schedule: Q01DX005 (ip), vehicle: Klucel (hydroxypropylcellulose) (HPC)): 100 % of control

CC1(C)COC(c2cc(Br)ccc2Br)=N1
T/C (dose: 12.5 mg/kg/injection, schedule: Q01DX009 (ip), vehicle: saline with Tween-80): 100 % of control | T/C (dose: 25.0 mg/kg/injection, schedule: Q01DX009 (ip), vehicle: saline with Tween-80): 102 % of control | T/C [6]: 97 % of control | T/C [1]: 97 % of control | T/C [3]: 101 % of control

O=C(O)CCSSCCCCS(=O)O
T/C (dose: 50.0 mg/kg/injection, schedule: Q01DX005 (ip), vehicle: saline): 114 % of control | T/C (dose: 100.0 mg/kg/injection, schedule: Q01DX005 (ip), vehicle: saline): 114 % of control | T/C (dose: 200.0 mg/kg/injection, schedule: Q01DX005 (ip), vehicle: saline): 100 % of control

C#CCC(C(C)=O)C(C)=O.[C-]#[O+].[C-]#[O+].[C-]#[O+].[C-]#[O+].[C-]#[O+].[C-]#[O+].[Co].[Co]
T/C [7]: 108 % of control | T/C [8]: 102 % of control | T/C [9]: 108 % of control and 95 % of control

CCOc1ccccc1C(=O)Nc1ccc(Br)cc1
T/C (dose: 50.0 mg/kg/injection, schedule: Q01DX009 (ip), vehicle: Klucel (hydroxypropylcellulose) (HPC)): 100 % of control | T/C (dose: 100.0 mg/kg/injection, schedule: Q01DX009 (ip), vehicle: Klucel (hydroxypropylcellulose) (HPC)): 99 % of control | T/C [1]: 112 % of control | T/C [2]: 100 % of control | T/C (dose: 200.0 mg/kg/injection, schedule: Q01DX009 (ip), vehicle: Klucel (hydroxypropylcellulose) (HPC)): 106 % of control | T/C [3]: 104 % of control | T/C [4]: 100 % of control | T/C (dose: 400.0 mg/kg/injection, schedule: Q01DX009 (ip), vehicle: Klucel (hydroxypropylcellulose) (HPC)): 97 % of control | T/C [10]: 91 % of control | T/C [5]: 95 % of control

c1ccc(-c2cnnc3c4ccccc4nn23)cc1
T/C [9]: 97 % of control | T/C [11]: 96 % of control | T/C (dose: 200.0 mg/kg/injection, schedule: Q01DX005 (ip), vehicle: Klucel (hydroxypropylcellulose) (HPC)): 91 % of control

C/C=C/C=C/C1=C2C(=O)N(c3ccccc3)N=C2CC(C)O1 (stereo not drawn)
T/C [9]: 100 % of control | T/C [11]: 104 % of control

Cn1c(=O)c2c(ncn2C)n(C)c1=O.[Cl][Pt]([Cl])[Cl]
T/C (dose: 6.25 mg/kg/injection, schedule: Q01DX005 (ip), vehicle: water): 116 % of control | T/C (dose: 12.5 mg/kg/injection, schedule: Q01DX005 (ip), vehicle: water): 116 % of control and 124 % of control | T/C (dose: 25.0 mg/kg/injection, schedule: Q01DX005 (ip), vehicle: water): 120 % of control | T/C (dose: 50.0 mg/kg/injection, schedule: Q01DX005 (ip), vehicle: water): 121 % of control | T/C (dose: 100.0 mg/kg/injection, schedule: Q01DX005 (ip), vehicle: water): 121 % of control

COc1c2c(c(O)c3c1C(=O)c1cccc(O)c1C3=O)C(OC1CC(N)C(O)C(C)O1)CC(O)(C(C)=O)C2 (stereo not drawn)
T/C (dose: 12.5 mg/kg/injection, schedule: Q04DX003 (ip), vehicle: water): 118 % of control | T/C (dose: 25.0 mg/kg/injection, schedule: Q04DX003 (ip), vehicle: water): 118 % of control | T/C (dose: 50.0 mg/kg/injection, schedule: Q04DX003 (ip), vehicle: water): 100 % of control

CCCCN1C(=O)/C(=C/c2ccccc2OC)SC1=S
T/C [9]: 98 % of control | T/C [11]: 94 % of control

Cc1cc2c(-c3ccccc3)c3cc(C)c(N)cc3nc2cc1N
T/C (dose: 6.25 mg/kg/injection, schedule: Q01DX005 (ip), vehicle: Klucel (hydroxypropylcellulose) (HPC)): 101 % of control | T/C [7]: 100 % of control | T/C [8]: 99 % of control

O=C1C(Br)CCC1(c1ccccc1)c1ccccc1 (stereo not drawn)
T/C [12]: 102 % of control | T/C [13]: 106 % of control | T/C (dose: 400.0 mg/kg/injection, schedule: Q01DX001 (ip), vehicle: Klucel (hydroxypropylcellulose) (HPC)): 102 % of control

Clc1ccc(-c2cn3c(n2)SCC3)cc1
T/C [12]: 121 % of control | T/C (dose: 100.0 mg/kg/injection, schedule: Q04DX002 (ip), vehicle: Klucel (hydroxypropylcellulose) (HPC)): 102 % of control | T/C [13]: 88 % of control | T/C (dose: 200.0 mg/kg/injection, schedule: Q04DX002 (ip), vehicle: Klucel (hydroxypropylcellulose) (HPC)): 104 % of control | T/C (dose: 400.0 mg/kg/injection, schedule: Q04DX002 (ip), vehicle: Klucel (hydroxypropylcellulose) (HPC)): 106 % of control

CCOC(=O)Nc1cc2c(cn1)[nH]c1ccccc12
T/C [14]: 105 % of control | T/C [15]: 114 % of control | T/C [16]: 112 % of control

CC(C)(C)c1ccc(OS(=O)(=O)c2cccc([N+](=O)[O-])c2)cc1
T/C [1]: 95 % of control | T/C [3]: 100 % of control | T/C [10]: 100 % of control

O=C(NCC1CC1)c1ccccc1NC(=O)c1cc2ccccc2oc1=O
T/C [14]: 100 % of control | T/C [15]: 100 % of control | T/C [16]: 108 % of control

CC1(C)CC(N=[N+]=[N-])CC(C)(C)N1O
T/C (dose: 100.0 mg/kg/injection, schedule: Q04DX003 (ip), vehicle: Klucel (hydroxypropylcellulose) (HPC)): 100 % of control

Cc1c2oc3c(C)c(N)cc(C(=O)NC4C(=O)NC(C(C)C)C(=O)N5CCCC5C(=O)N(C)CC(=O)N(C)C(C(C)C)C(=O)OC4C)c3nc-2c(C(=O)NC2C(=O)NC(C(C)C)C(=O)N3CCCC3C(=O)N(C)CC(=O)N(C)C(C(C)C)C(=O)OC2C)c(N)c1=O (stereo not drawn)
T/C (dose: 0.01 mg/kg/injection, schedule: Q01DX009 (ip), vehicle: Klucel (hydroxypropylcellulose) (HPC)): 102 % of control | T/C (dose: 0.02 mg/kg/injection, schedule: Q01DX009 (ip), vehicle: Klucel (hydroxypropylcellulose) (HPC)): 110 % of control | T/C (dose: 0.04 mg/kg/injection, schedule: Q01DX009 (ip), vehicle: Klucel (hydroxypropylcellulose) (HPC)): 115 % of control | T/C (dose: 0.08 mg/kg/injection, schedule: Q01DX009 (ip), vehicle: Klucel (hydroxypropylcellulose) (HPC)): 93 % of control | T/C (dose: 0.3 mg/kg/injection, schedule: Q01DX009 (ip), vehicle: Klucel (hydroxypropylcellulose) (HPC)): 190 % of control

O=S(=O)(N=N/C=C1\C=CC=CN1O)c1cccs1
T/C (dose: 50.0 mg/kg/injection, schedule: Q04DX002 (ip), vehicle: saline with Tween-80): 100 % of control | T/C (dose: 600.0 mg/kg/injection, schedule: Q04DX002 (ip), vehicle: saline with Tween-80): 117 % of control

O=C(NCCCl)Oc1cc(Cl)c(Cl)cc1Cl
T/C [7]: 120 % of control | T/C [8]: 111 % of control | T/C [12]: 102 % of control
